Key:
[1] = Experimental: The volatility was determined by analyzing the loss of material by HLPL at 70° C. after 24 h at atmospheric pressure and the loss is summarized in Table 5. The application rate was 500 g/ha dicamba (free acid), 1000 g/ha potassium glyphosate, 300 g/ha Genamin® T050 (“Ad2”, 300 g/ha Preference® (“Ad3”) and optionally 250, 500 or 1000 g/ha K2CO3. Deionised water (hardness<1° dH) was used to prepare the samples. Dicamba BAPMA refers to the bis(3-aminopropyl)methylamine salt of dicamba.
[2] = tested on: Soya (glycine max) Variant Deltapine, genetically engineered to resist glyphosate; format: in vivo; settings: conclusion from Table 4
Experimental: For the greenhouse tests, maize (cultivar Amadeo) and Chenopodium album was sown or potted in loamy sandy soil to a depth of 1-2 cm. When the plants had reached a growth height of 10 to 25 cm (around 10 to 21 days after sowing), the spray mixtures were applied to the plants in a spraying cabin.
The temperatures in the experimental period, which lasted for 3 to 4 weeks, were between 18-35° C. During this time, the experimental plants received optimum watering, with nutrients being supplied via the water used for watering.
The herbicidal activity was evaluated by awarding scores to the treated plants in comparison to the untreated control plants (Table 1 and 2). The evaluation scale ranges from 0% to 100% activity. 100% activity means the complete death at least of those parts of the plant that are above ground. Conversely, 0% activity means that there were no differences between treated and untreated plants.
The biological evaluation was made as described in Example 6. The tank mixes were applied at a application rate of 375 l/ha (125 or 250 g of glyphosate free acid/ha and 300 g of adjuvant/ha). The adjuvant Ad1 is an aqeuous solution of 200 g/l Genamin® T150 (a tallow fatty amine ethoxylate with 15 EO). The adjuvant Ad2 is Genamin® T050 (a tallow fatty amine ethoxylate with 5 EO).
Soya (glycine max) Variant Deltapine was genetically engineered to resist glyphosate.

SMILES	Loss of dicamba, Loss (wt %) ([1]; 70° C., 24 h, atmospheric pressure, 500 g/ha dicamba (free acid), deionised water)	pH of tank mix ([1]; deionised water (hardness<1° dH))	phytotoxity effect on plants of addition of K2CO3 [2]
CN(CCCN)CCCN.COc1c(Cl)ccc(Cl)c1C(=O)O [Dicamba BAPMA, bis(3-aminopropyl)methylamine salt of dicamba]	<1	6.3	–
O=C([O-])[O-].[K+].[K+] [Example K2CO3, K2CO3]	–	–	no phytotoxity effect

— patent publication US20150051078A1, “Glyphosate tank mix adjuvant comprising a base selected from a carbonate and/or a phosphate” (priority 2012, published 2015)
